Literature values in patent US20250255927A1, “COMPOSITIONS AND METHODS FOR ALLEVIATING ADVERSE EFFECTS FROM RESPONSIBLE ALCOHOL CONSUMPTION” (Cheers Health, Inc., priority 2023, published 2025).

Experiments:
[1] = rat models
pain = conditions: 1 g of salicin

Row | Structure (SMILES) | time to reach the brain without any metabolic change [1] | amount of aspirin with comparable pain relief effect (pain)
1 | CCNC(=O)CC[C@H](N)C(=O)O [L-Theanine] | ≤ 30 min | 
2 | OCc1ccccc1O[C@@H]1O[C@H](CO)[C@@H](O)[C@H](O)[C@H]1O [salicin] |  | ~620 mg
